pIC50, pKi: −log10 of the molar value.
How the values were obtained:
CRTh2 receptor [1] = target: T1, CRTh2 receptor (Homo sapiens, UniProt Q9Y5Y4); test: CRTH2 cAMP functional assay: inhibition of PGD2-mediated attenuation of forskolin-induced cAMP accumulation in CHO.K1-CRTh2 cells; type: cell-based; conditions: 10 nM PGD2, 5 μM forskolin, cAMP Alphascreen
T1 construct: expressed in transfected cells; host or cells: CHO.K1 (Chinese Hamster Ovary) cells, CHO.K1-CRTh2
T1 sequence (Q9Y5Y4 1-395): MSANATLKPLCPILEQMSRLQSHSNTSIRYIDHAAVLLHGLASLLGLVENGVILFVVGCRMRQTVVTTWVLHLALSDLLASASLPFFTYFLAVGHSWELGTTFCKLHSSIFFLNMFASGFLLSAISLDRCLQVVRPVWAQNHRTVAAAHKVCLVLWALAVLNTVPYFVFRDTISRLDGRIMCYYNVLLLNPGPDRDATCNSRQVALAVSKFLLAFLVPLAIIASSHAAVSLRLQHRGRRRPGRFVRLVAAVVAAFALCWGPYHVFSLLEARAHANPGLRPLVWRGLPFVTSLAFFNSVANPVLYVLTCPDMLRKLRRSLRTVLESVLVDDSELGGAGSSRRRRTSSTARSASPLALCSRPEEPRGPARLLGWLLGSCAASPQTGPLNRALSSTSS
Experimental: Ki (dissocation constant for the inhibition) values for the CRTh2 antagonists are reported. Ki values are determined using Sigma Plot™ software, using the Cheng-Prussoff equation. Ki=IC50/1+[S]/Kd, where S is the concentration of radioligand and Kd is the dissociation constant. CRTH2 cAMP Functional Assay Protocol
This assay is conducted in CHO.K1-CRTh2 cells. cAMP is generated in the cell by stimulating cells with 5 μM forskolin, an adenylate cyclase activator. PGD2 is added to activate the CRTh2 receptor which results in the attenuation of the forskolin-induced cAMP accumulation. Potential CRTh2 antagonists are tested for their ability to inhibit the PGD2-mediated attenuation of the forskolin-induced cAMP accumulation in CHO.K1-CRTh2 cells.
For each concentration value on the dose-response curve, test compounds are prepared in assay stimulation buffer (HBSS, 5 mM HEPES, 10 μM IBMX±0.1% human serum albumin) containing DMSO (3% vol/vol) and 5 μL/well is added to an assay plate (384-well white optiplate).
CHO.K1-CRTh2 cultured in tissue culture flasks are washed with PBS and harvested with dissociation buffer. Cells are washed with PBS and resuspended in stimulation buffer to a concentration of 0.4×10^6/mL and added to the assay plate (10 μL/well).
The assay plate is incubated at room temperature on a shaker for 15 minutes.
A mix of agonist (10 nM Prostaglandin D2) and 5 μM forskolin is prepared in assay stimulation buffer and added to the assay plate (5 μL/well).
In addition, a cAMP standard is serially diluted in assay stimulation buffer and added to separate empty wells on the assay plate (20 μL/well). The cAMP standard allows for the quantification of cAMP generated in CHO.K1-CRTH2 cells.
The assay plate is incubated at room temperature on a shaker for 60 minutes.
Cell lysis buffer (Lysis buffer: Milli-Q H2O, 5 mM HEPES, 0.3% Tween-20, 0.1% human serum albumin) is added to a bead mix (containing Alphascreen™ anti-cAMP acceptor beads 0.06 units/μL, Alphascreen™ streptavidin-coated donor beads 0.06 units/μL, biotinylated cAMP 0.06 units/μL, 10 μM IBMX) is prepared under darkened conditions 60 minutes prior to addition to the assay plate. The resulting lysis mix is added to all wells of the assay plate (40 μL/well).
The assay plate is sealed with Topseal-S™ and incubated in the dark at room temperature on a shaker for 45 minutes. The plate is then counted using a Packard Fusion™ instrument.
The resulting counts per minute are converted to nM cAMP by using the prepared cAMP standard curve. IC50 values (concentration of CRTh2 antagonist required to inhibit 50% of the PGD2-mediated attenuation of forskolin-induced cAMP accumulation in CHO.K1-CRTh2 cells) are then determined using Prism™ software.

CRTh2 receptor [2] = target: T1, CRTh2 receptor; test: Filtration binding assay: competition with [3H]-PGD2 on CHO.K1-CRTh2 membranes (results text calls it SPA binding assay); conditions: [3H]-PGD2 2.5 nM, Cheng-Prussoff
Experimental: The binding of CRTh2 antagonists is determined using membranes prepared from human CRTh2-expressing Chinese Hamster Ovary cells (CHO.K1-CRTh2). To produce cell membranes CHO.K1-CRTh2 cells cultured in roller bottles are harvested using cell dissociation buffer (Invitrogen). The cells are pelleted by centrifugation (167 g, 5 minutes). The cell pellet is incubated in hypotonic buffer (15 mM Tris-OH, 2 mM MgCl2, 0.3 mM EDTA, 1 mM EGTA, 1× Complete™ tablet) at 4° C. for 30 minutes. At 4° C. cells are homogenized using a Polytron® (IKA Ultra Turrax T25) for 5 bursts of 1 second. The homogenate is centrifuged (Beckman Optima TM TL Ultracentrifuge, 48,000 g, 30 minutes at 4° C.). The supernatant is discarded and the membrane pellet re-suspended in homogenisation buffer (75 mM Tris-OH, 12.5 mM MgCl2, 0.3 mM EDTA, 1 mM EGTA, 250 mM Sucrose, 1× Complete™ tablet. Membrane preparations are aliquoted and stored at […]. The protein content is estimated using Bradford Protein Assay Dye (Bio Rad).
The binding of [^3H]-PGD2 (157 Ci/mmol) to CHO.K1-CRTh2 membranes is determined in the absence (total binding) and presence (non-specific binding) of unlabelled PGD2 (1 μM). Subtraction of the cpm (counts per minute) of [^3H]-PGD2 binding in presence of excess unlabelled PGD2 from that observed in the absence of excess unlabelled PGD2 is defined as specific binding. Active CRTh2 antagonists are able to compete with [^3H]-PGD2 for binding to the CRTh2 receptor and are identified in a decrease in the number of cpm bound.
The assay is performed in Greiner U-bottomed 96 well-plates, in a final volume of 100 μL/well. CHO.K1-CRTh2 membranes were diluted in assay buffer (10 mM HEPES-KOH (pH 7.4), 1 mM EDTA and 10 mM MnCl2) and 10 μμg are added to each well. [^3H]-PGD2 is diluted in assay buffer and added to each well at a final concentration of 2.5 nM. To determine non-specific binding, [3H]-PGD2 binding to the CRTh2 receptor is competed with using unlabelled PGD2 at a final well concentration of 1 μM. The experiment is done in triplicate, with reagents added to the wells as follows: • 25 μL assay buffer for total binding or • 25 μL PGD2 to determine non-specific binding • 25 μL [^3H]PGD2 • […] membranes • 25 μL test compound in DMSO/assay buffer
The plates are incubated at RT on a shaker for 1 hour, and then harvested (Tomtec Harvester 9600) onto GF/C filter plates using wash buffer (10 mM HEPES-KOH, pH 7.4). […] Plates are then counted using a Packard Top Count instrument, Plates are then read on the Packard Topcount with the 3H Scintillation program (1 minute/well).
Ki (dissocation constant for the inhibition) values for the CRTh2 antagonists are reported. Ki values are determined using Sigma Plot™ software, using the Cheng-Prussoff equation. […]

Row | pIC50 (CRTh2 receptor [1]) | pKi (CRTh2 receptor [2]) | Compound
1 | 7.65 | 7.39 | CC(Oc1ccc(Cl)cc1Cc1cc(Cl)ccc1OCC(=O)O)C(=O)N1CCCC1 (racemic) [Example 1, {4-Chloro-2-[5-chloro-2-(1-methyl-2-oxo-2-pyrrolidin-1-yl-ethoxy)-benzyl]-phenoxy}-acetic acid]
2 | 7.60 | 7.22 | CC(Oc1ccccc1Cc1cc(Cl)ccc1OCC(=O)O)C(=O)N1CCCC1 (single isomer, unassigned) [8 (enantiomer 1), {4-Chloro-2-[2-((R/S)-1-methyl-2-oxo-2-pyrrolidin-1-yl-ethoxy)-benzyl]-phenoxy}-acetic acid]
3 | 7.65 | 7.02 | CC(Oc1ccc(Cl)cc1Cc1cc(Cl)ccc1OCC(=O)O)C(=O)N1CCOCC1 (centres unmarked) [Example 3, {4-Chloro-2-[5-chloro-2-(1-methyl-2-morpholin-4-yl-2-oxo-ethoxy)-benzyl]-phenoxy}-acetic acid]
4 | 7.43 | 7.08 | CC(Oc1ccccc1Cc1cc(Cl)ccc1OCC(=O)O)C(=O)N1CCCC1 (centres unmarked) [Example 7, {4-Chloro-2-[2-(1-methyl-2-oxo-2-pyrrolidin-1-yl-ethoxy)-benzyl]-phenoxy}acetic acid]

— patent publication US7678826B2, “Organic compounds for the treatment of inflammatory or allergic conditions” (priority 2005, dated 2010)
